This note sets out measurements from patent US8614227B2, “Salt and solvates of a tetrahydroisoquinoline derivative” (Spinifex Pharmaceuticals Pty Ltd, priority 2010, dated 2013).

A short description of data set [1]: Gravimetric vapour sorption (GVS). It counts as physicochemical. The procedure:
Sorption isotherms were obtained using a Hiden IGASorp moisture sorption analyzer, controlled by CFRSorp software. The sample temperature was maintained at 25° C. by a Huber re-circulating water bath. The humidity was controlled by mixing streams of dry and wet nitrogen, with a total flow rate of 250 mL·min^−1. The relative humidity was measured by a calibrated Vaisala RH probe (dynamic range of 0-95% RH), located near the sample. The weight change, (mass relaxation) of the sample as a function of % RH was constantly monitored by the microbalance (accuracy ±0.001 mg).
Typically 10-20 mg of sample was placed in a tared mesh stainless steel basket under ambient conditions. The sample was loaded and unloaded at 40% RH and 25° C. (typical room conditions).
A moisture sorption isotherm was performed as outlined below (2 scans giving 1 complete cycle). The standard isotherm was performed at 25° C. at 10% RH intervals over a 0-90% RH range.
The software uses a least squares minimization procedure together with a model of the mass relaxation, to predict an asymptotic value. The measured mass relaxation value must be within 5% of that predicted by the software, before the next RH value is selected. The minimum equilibration time was set to 1 hour and the maximum to 4 hours.
The sample was recovered after completion of the isotherm and re-analyzed by XRPD.

A short description of the next data set: in vivo. Conditions: male, beagle, dog, po, 10 mg/kg.
The nature of another data set: pKa of Compound 1. It counts as physicochemical.
The conditions of data set [2]: dog, in vivo, po, 10 mg/kg.
Experimental: (§1) The study was designed to compare the PK profiles of the following four forms of Compound 1 administered as single oral capsules in fasted state. […] There was a washout period of 4 days between dosing. The blood samples were collected from each animal at predetermined times on the study Days 1, 4, 8 and 11. The plasma was analyzed for Compound 1 by a validated HPLC-MS/MS assay.
(§2) Descriptive PK parameters were determined by standard model independent methods (Gibaldi and Perrier, 1982) based on the individual plasma concentration-time data. Plasma concentrations were rounded to 3 significant figures. Plasma samples with concentrations below the quantifiable assay limit (BQL<2.00 ng/mL) were assigned values of zero for mean calculations. For PK calculations, BQL was set to zero from the pre-dose time up to the time of the first quantifiable concentration and thereafter was set as missing. Nominal time points were used for all calculations. • Cmax is the observed maximum plasma concentration after dosing. • Tmax is the time to reach Cmax. • T1/2 is apparent half-life calculated by ln(2)/λ where λ is the rate constant fix the log-linear portion of the terminal phase. A minimum of three values in the post-distribution phase of the plasma concentration-time curve is required for calculation of X. • AUC(0-T) is the area under the plasma concentration-time curve from time zero to the time of the last measurable plasma concentration determined using the linear trapezoidal rule. • AUC(0-inf) is the area under the plasma concentration-time curve from time zero to infinity. It is calculated by summing AUC(0-T) and the extrapolated area from the T to infinity.
(§3) PK analyses were performed by noncompartmental analysis using model 200 in WinNonlin Professional 6.1 (Pharsight Corp., Mountain View, Calif.).
Data set [3] is described as follows: Storage of amine salts at elevated humidity (deliquescence). It counts as physicochemical. How it is done: The tromethamine salt deliquesced at 25° C./94% RH. As a result, neither of these amine salts were suitable for pharmaceutical development.

Read-outs that look alike come from different tables or passages of the source.

Experimental for in vivo: as §1, §2, §3

On to `COc1ccc2c(c1OCc1ccccc1)C[C@@H](C(=O)[O-])N(C(=O)C(c1ccccc1)c1ccccc1)C2.[Na+]` [material from acetonitrile (MeCN)], for which, in data set [1] (from 0% RH to 40% RH), the “GVS weight gained by 40% RH” value is recorded as 6%. Besides, the “GVS weight change when taken up to 90% RH” value in data set [1] (from 40% RH to 90% RH, 25° C.) is given as “about 17%”. Moreover, in data set [1] (from 90% RH to 0% RH), the “GVS total weight drop” value turned out to be 19%. Besides, the “GVS weight at 0% RH” value in data set [1] (taken down to 0% RH, 25° C.) is given as −2%.

By AUC(0-inf) is commonly meant total exposure, with the tail of the curve extrapolated. Lower therefore signals low exposure. In general, half-life refers to the time in which the quantity being followed falls by half. Read a high half-life as slow decline. One may read the Tmax as the time from dosing to the highest level. One may read the Cmax as the maximum level reached in the sampled fluid or tissue. As usually defined, the pKa is the pH at which an ionisable group is half protonated. Read a low pKa as a group that gives up its proton readily. With `COc1ccc2c(c1OCc1ccccc1)C[C@@H](C(=O)O)N(C(=O)C(c1ccccc1)c1ccccc1)C2` [Compound 1, (S)-2-(diphenylacetyl)-1,2,3,4-tetrahydro-6-methoxy-5-(phenylmethoxy)-3-isoquinoline carboxylic acid], in “in vivo” (Mean AUC(0-inf)), the AUC(0-inf) was 680 ± 412 ng·h/mL. Also, in “in vivo” (Mean harmonic T1/2), the half-life was 2.11 ± 0.115 h. The compound also showed a half-life in “in vivo” (T1/2) of 2.18 h. For the same compound, in “in vivo” (Tmax), the Tmax stood at 1 h. In addition, the concentration in “in vivo” (mean Cmax) peaked (Cmax) at 294 ± 238 ng/mL. Besides, in “in vivo” (median Tmax), the Tmax was found to be 2 h. Further, the pKa in the data set “pKa of Compound 1” is roughly 3.86. In data set [2], the “Plasma concentration of Compound 1, 0.25 h” value was “BQL”; the “Plasma concentration of Compound 1, 0.5 h” value was “BQL”; the “Plasma concentration of Compound 1, 0.75 h” value was “BQL”; the “Plasma concentration of Compound 1, 12 h” value is “BQL”. Besides, in data set [2], the “Plasma concentration of Compound 1, 24 h” value is on record as “BQL” and the “Plasma concentration of Compound 1, Predose” value is reported as “BQL”. Also, the “Plasma concentration of Compound 1, Predose” value in data set [2] (male, beagle) is listed as 0.00 ng/mL. Further, the “Plasma concentration of Compound 1, 24 h” value in data set [2] (male, beagle, 24 h) is given as 0.00 ng/mL.

On to `COc1ccc2c(c1OCc1ccccc1)C[C@@H](C(=O)O)N(C(=O)C(c1ccccc1)c1ccccc1)C2.NC(CO)(CO)CO` [tromethamine salt], for which the “behaviour on storage at 25° C./94% RH” value in data set [3] is on record as “deliquesced”.
